Data reported in publication PMC9385704, “A tubulin binding molecule drives differentiation of acute myeloid leukemia cells” (iScience, 2022).

Biological target: tubulin beta chain (TUBB) (Homo sapiens, UniProt P07437)
Assay: competition with photoaffinity probe […] in HL-60 cells; pull-down LC-MS/MS and anti-TUBB immunoblot
Format: cell-based

tubulin beta chain (TUBB), sequence (P07437 whole entry): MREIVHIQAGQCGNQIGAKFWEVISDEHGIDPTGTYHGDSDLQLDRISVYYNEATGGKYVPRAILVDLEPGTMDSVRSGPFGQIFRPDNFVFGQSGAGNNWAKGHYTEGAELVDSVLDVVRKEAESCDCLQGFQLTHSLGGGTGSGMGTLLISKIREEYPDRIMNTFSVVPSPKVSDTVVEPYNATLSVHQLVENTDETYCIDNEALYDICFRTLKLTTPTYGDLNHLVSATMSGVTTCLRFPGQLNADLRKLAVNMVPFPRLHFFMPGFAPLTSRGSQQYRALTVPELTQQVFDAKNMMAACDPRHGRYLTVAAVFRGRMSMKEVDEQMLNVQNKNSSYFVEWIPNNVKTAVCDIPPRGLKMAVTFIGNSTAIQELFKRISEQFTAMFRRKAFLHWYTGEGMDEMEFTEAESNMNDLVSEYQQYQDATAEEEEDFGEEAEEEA

For `Cc1cc(C#N)ccc1-c1cc2c(cn1)ncn2-c1ccc2c(C)n[nH]c2c1` [compound 5, 3-Methyl-4-[1-(3-methyl-1H-indazol-6-yl)imidazo[4,5-c]pyridin-6-yl]benzonitrile], the “competition with photoaffinity probe 4 in HL-60 cells; pull-down LC-MS/MS and an” value was “The results clearly show concentration-dependent competition with OXS0082555 and paclitaxel confirming tubulin beta chain as a direct target”.
